In test [1] the test system is Group I metabotropic glutamate receptors (mGluRs). Description: Phosphatidylinositol assay (ex vivo, inositol phosphate accumulation in neonatal rat tissue slices). The format is cell-based, Sprague Dawley rat. The following applies: antagonist, versus ACPD, 45 minutes. On the procedure: Briefly, cross-chopped slices are prepared from neonatal Sprague Dawley rat tissue (age: p7-p14). The slices are pre-labelled with [^3H] myo-inositol. Following pre-labelling, the slices are incubated with the test drugs and standard (known Group I agonists i.e. ACPD) for a period of 45 minutes. The incubation is terminated by the addition of chloroform/methanol/HCl (100:200:2). The resulting mixture is separated into two phases by the addition of chloroform and distilled water. The aqueous fraction is applied to ion exchange columns, and inositol phosphates are eluted using 800 mM Ammonium Formate/100 mM Formic Acid. The eluent is then analyzed using liquid scintillation counting. The amount of inositol phosphate accumulation is expressed as a percentage of that induced by ACPD.
Group I metabotropic glutamate receptors (mGluRs) are positively coupled on inositol phosphate metabolism. Agonists at these receptors lead to an increase in intracellular free inositol phosphates, while antagonists inhibit the increase in intracellular free inositol phosphate induced by standard agonists (i.e. ACPD).
Cross-chopped slices were prepared from neonatal Sprague Dawley rat tissue (age: p7-p14). […] The eluent was then analyzed using liquid scintillation counting. The amount of inositol phosphate accumulation was expressed as a percentage of that induced by ACPD. […]

The test system of test [2] is Group II/III metabotropic glutamate receptors (mGluRs). Description: Cyclic AMP assay (ex vivo, forskolin-induced cAMP accumulation in rat cortical slices). The format is cell-based, Sprague Dawley rat. As for the experimental part:
The assay of cyclic AMP formation can be performed as described previously (Tovey et al., Clinica Chimica Acta, 56, 221-234, 1974). The assay can be modelled on the cyclic AMP assay kit available from Amersham, which in turn, is based on the assay created by Tovey et al. Briefly, samples are prepared from Sprague Dawley rat (225-250 g) cortical slices. Slices are incubated with the drug, and then challenged with forskolin to induce cyclic AMP release. Following termination of the reaction by boiling, the slices are homogenized and centrifuged. Samples of supernatant are then incubated for 2-3 hours with a known quantity of [^3H]cAMP and a binding protein. […] The resulting supernatant (containing free cyclic AMP) is then analyzed by liquid scintillation counting. The amount of unbound cyclic AMP can be calculated from a standard curve previously determined with various samples of free cyclic AMP. […]
The assay has been modeled on the cyclic AMP assay kit available from Amersham. […] Samples of supernatant were then incubated for 2-3 hours with a known quantity of [^3H]cAMP and a binding protein. […] The resulting supernatant (containing free cyclic AMP) was then analyzed by liquid scintillation counting. The amount of unbound cyclic AMP was calculated from a standard curve previously determined with various samples of free cyclic AMP. […]

Results on 2 compounds are retold here after US7034055B1, “2-aminoindane analogs” (Prescient Neuropharma Inc., priority 1999, dated 2006).

Where two headings read alike, the source gives them in different places.

Take `N[C@]1(C(=O)O)Cc2ccccc2[C@H]1CC(=O)O` (relative stereo) [Trans-2 amino-2-carboxyindaneacetic acid (compound 8)]: the EC50 in test [1] is 1600 µM; in test [2] (agonist, read-out: Group II/III Agonist EC50), 0.11 µM.

On to `N[C@@]1(C(=O)O)Cc2ccccc2[C@H]1CC(=O)O` (relative stereo) [Cis-2 amino-2-carboxyindaneacetic acid (compound 8)], for which the EC50 in test [1] stood at 2.2 µM; in test [2] (antagonist, versus glutamate, read-out: Group II/III Antagonist EC50), 0.0012 µM.
